# Tests used:
# Assay in all cases: relative viability (nuclei count vs DMSO), 5 days (fraction); higher = more cells survive
# [1] = compound: C1=CC2=NC=CN=C2C=C1/C=C/3\C(=O)NC(=O)S3 + O=C(c1cc(Cc2n[nH]c(=O)c3ccccc23)ccc1F)N1CCN(C(=O)C2CC2)CC1 [Olaparib] (partner 8 µM)
# Summary of the method: (§1)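 The day after seeding in 1536-well plates, lung cancer cell lines were treated by pin tool with a single drug, or with a fixed anchor-drug dose together with five library-drug doses (not always all listed) in √10 steps. After 5 days, a combined fix-and-stain solution (final 0.05% Triton X-100, 1% formaldehyde, 1 ug/ml Hoechst) was added. Nuclei counted on 4× images gave relative viability as treated counts over vehicle counts, reported as the median of duplicate plates.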
# BGJ398 + Vorinostat = compound: CCN1CCN(c2ccc(Nc3cc(N(C)C(=O)Nc4c(Cl)c(OC)cc(OC)c4Cl)ncn3)cc2)CC1 [BGJ398] + O=C(CCCCCCC(=O)Nc1ccccc1)NO [Vorinostat] (partner 1 µM)
# Summary of the method: as §1
# [2] = compound: C1=CC2=NC=CN=C2C=C1/C=C/3\C(=O)NC(=O)S3 + Nc1nc2[nH]cc(CCc3ccc(C(=O)N[C@@H](CCC(=O)O)C(=O)O)cc3)c2c(=O)[nH]1 [Pemetrexed] (partner 0.2 µM)
# Summary of the method: as §1
# BGJ398 + Pictilisib = compound: CCN1CCN(c2ccc(Nc3cc(N(C)C(=O)Nc4c(Cl)c(OC)cc(OC)c4Cl)ncn3)cc2)CC1 [BGJ398] + CS(=O)(=O)N1CCN(Cc2cc3nc(-c4cccc5[nH]ncc45)nc(N4CCOCC4)c3s2)CC1 [Pictilisib] (partner 1 µM)
# Summary of the method: as §1
cell line,measurement,setting,value
LC-2-ad,relative viability,[1]; first compound 0.02 µM,0.63
same,relative viability,[1]; first compound 0.06325 µM,0.811
same,relative viability,[1]; first compound 0.2 µM,0.692
same,relative viability,[1]; first compound 0.6325 µM,0.611
same,relative viability,[1]; first compound 2 µM,0.344
same,relative viability,BGJ398 + Vorinostat; first compound 0.01 µM,0.708
same,relative viability,BGJ398 + Vorinostat; first compound 0.03162 µM,0.76
same,relative viability,BGJ398 + Vorinostat; first compound 0.1 µM,0.742
same,relative viability,BGJ398 + Vorinostat; first compound 0.3162 µM,0.687
same,relative viability,BGJ398 + Vorinostat; first compound 1 µM,0.703
same,relative viability,[2]; first compound 0.02 µM,0.292
same,relative viability,[2]; first compound 0.06325 µM,0.286
same,relative viability,[2]; first compound 0.2 µM,0.276
same,relative viability,[2]; first compound 0.6325 µM,0.283
same,relative viability,[2]; first compound 2 µM,0.279
same,relative viability,BGJ398 + Pictilisib; first compound 0.01 µM,0.547
same,relative viability,BGJ398 + Pictilisib; first compound 0.03162 µM,0.492
same,relative viability,BGJ398 + Pictilisib; first compound 0.1 µM,0.467
same,relative viability,BGJ398 + Pictilisib; first compound 0.3162 µM,0.419
same,relative viability,BGJ398 + Pictilisib; first compound 1 µM,0.392
LCLC-97TM1,relative viability,[1]; first compound 0.02 µM,0.354
same,relative viability,[1]; first compound 0.06325 µM,0.372
same,relative viability,[1]; first compound 0.2 µM,0.36
same,relative viability,[1]; first compound 0.6325 µM,0.334
same,relative viability,[1]; first compound 2 µM,0.281
same,relative viability,BGJ398 + Vorinostat; first compound 0.01 µM,0.533
same,relative viability,BGJ398 + Vorinostat; first compound 0.03162 µM,0.691
same,relative viability,BGJ398 + Vorinostat; first compound 0.1 µM,0.743
same,relative viability,BGJ398 + Vorinostat; first compound 0.3162 µM,0.781
same,relative viability,BGJ398 + Vorinostat; first compound 1 µM,0.753
same,relative viability,[2]; first compound 0.02 µM,0.138
same,relative viability,[2]; first compound 0.06325 µM,0.199
same,relative viability,[2]; first compound 0.2 µM,0.187
same,relative viability,[2]; first compound 0.6325 µM,0.152
same,relative viability,[2]; first compound 2 µM,0.152
same,relative viability,BGJ398 + Pictilisib; first compound 0.01 µM,0.186
same,relative viability,BGJ398 + Pictilisib; first compound 0.03162 µM,0.189
same,relative viability,BGJ398 + Pictilisib; first compound 0.1 µM,0.207
same,relative viability,BGJ398 + Pictilisib; first compound 0.3162 µM,0.298
same,relative viability,BGJ398 + Pictilisib; first compound 1 µM,0.163
LCLC-103H,relative viability,[1]; first compound 0.02 µM,0.75
same,relative viability,[1]; first compound 0.06325 µM,0.788
same,relative viability,[1]; first compound 0.2 µM,0.727
same,relative viability,[1]; first compound 0.6325 µM,0.725
same,relative viability,[1]; first compound 2 µM,0.729
same,relative viability,BGJ398 + Vorinostat; first compound 0.01 µM,0.769
same,relative viability,BGJ398 + Vorinostat; first compound 0.03162 µM,0.784
same,relative viability,BGJ398 + Vorinostat; first compound 0.1 µM,0.68
same,relative viability,BGJ398 + Vorinostat; first compound 0.3162 µM,0.697
same,relative viability,BGJ398 + Vorinostat; first compound 1 µM,0.602
same,relative viability,[2]; first compound 0.02 µM,0.464
same,relative viability,[2]; first compound 0.06325 µM,0.438
same,relative viability,[2]; first compound 0.2 µM,0.473
same,relative viability,[2]; first compound 0.6325 µM,0.448
same,relative viability,[2]; first compound 2 µM,0.447
same,relative viability,BGJ398 + Pictilisib; first compound 0.01 µM,0.652
same,relative viability,BGJ398 + Pictilisib; first compound 0.03162 µM,0.576
same,relative viability,BGJ398 + Pictilisib; first compound 0.1 µM,0.486
same,relative viability,BGJ398 + Pictilisib; first compound 0.3162 µM,0.52
same,relative viability,BGJ398 + Pictilisib; first compound 1 µM,0.465
LK-2,relative viability,[1]; first compound 0.02 µM,0.739
same,relative viability,[1]; first compound 0.06325 µM,0.798
same,relative viability,[1]; first compound 0.2 µM,0.758
same,relative viability,[1]; first compound 0.6325 µM,0.702
same,relative viability,[1]; first compound 2 µM,0.348
same,relative viability,BGJ398 + Vorinostat; first compound 0.01 µM,0.296
same,relative viability,BGJ398 + Vorinostat; first compound 0.03162 µM,0.334
same,relative viability,BGJ398 + Vorinostat; first compound 0.1 µM,0.247
same,relative viability,BGJ398 + Vorinostat; first compound 0.3162 µM,0.225
same,relative viability,BGJ398 + Vorinostat; first compound 1 µM,0.207
same,relative viability,[2]; first compound 0.02 µM,0.198
same,relative viability,[2]; first compound 0.06325 µM,0.326
same,relative viability,[2]; first compound 0.2 µM,0.276
same,relative viability,[2]; first compound 0.6325 µM,0.267
same,relative viability,[2]; first compound 2 µM,0.148
same,relative viability,BGJ398 + Pictilisib; first compound 0.01 µM,0.555
same,relative viability,BGJ398 + Pictilisib; first compound 0.03162 µM,0.529
same,relative viability,BGJ398 + Pictilisib; first compound 0.1 µM,0.326
same,relative viability,BGJ398 + Pictilisib; first compound 0.3162 µM,0.235
same,relative viability,BGJ398 + Pictilisib; first compound 1 µM,0.245

# — the supplement of paper PMC10307832
